Experiments:
[1] = tested on: SR; experiment: NCI-60 antiproliferative screening; type: cell-based; settings: Homo sapiens, read-out: percent inhibition
[2] = tested on: HCT-116; experiment: NCI-60 antiproliferative screening; type: cell-based; settings: Homo sapiens, HCT-116, read-out: percent inhibition
[3] = tested on: HOP-62; experiment: NCI-60 antiproliferative screening; type: cell-based; settings: Homo sapiens, HOP-62, read-out: percent inhibition
[4] = tested on: SK-MEL-5; experiment: NCI-60 antiproliferative screening; type: cell-based; settings: Homo sapiens, SK-MEL-5, read-out: percent inhibition
[5] = tested on: SF-295; experiment: NCI-60 antiproliferative screening; type: cell-based; settings: Homo sapiens, SF-295, read-out: percent inhibition
[6] = tested on: EKVX; experiment: NCI-60 antiproliferative screening; type: cell-based; settings: Homo sapiens, read-out: percent inhibition
[7] = tested on: KM12; experiment: NCI-60 antiproliferative screening; type: cell-based; settings: Homo sapiens, KM12, read-out: percent inhibition
[8] = tested on: TK-10; experiment: NCI-60 antiproliferative screening; type: cell-based; settings: Homo sapiens, TK-10, read-out: percent inhibition
[9] = tested on: M14; experiment: NCI-60 antiproliferative screening; type: cell-based; settings: Homo sapiens, M14, read-out: percent inhibition
[10] = tested on: T-47D; experiment: NCI-60 antiproliferative screening; type: cell-based; settings: Homo sapiens, T47D, read-out: percent inhibition
[11] = tested on: SN12C; experiment: NCI-60 antiproliferative screening; type: cell-based; settings: Homo sapiens, read-out: percent inhibition
[12] = biological target: HDAC2 (Homo sapiens, UniProt Q92769); experiment: In vitro HDAC enzyme assay; type: biochemical
[13] = biological target: HDAC11 (Homo sapiens, UniProt Q96DB2); experiment: In vitro HDAC enzyme assay; type: biochemical
[14] = tested on: UACC-62; experiment: NCI-60 antiproliferative screening; type: cell-based; settings: Homo sapiens, UACC-62, read-out: percent inhibition
[15] = tested on: A498; experiment: NCI-60 antiproliferative screening; type: cell-based; settings: Homo sapiens, A498, read-out: percent inhibition
[16] = tested on: NCI-H23; experiment: NCI-60 antiproliferative screening; type: cell-based; settings: Homo sapiens, NCI-H23, read-out: percent inhibition
[17] = biological target: HDAC7 (Homo sapiens, UniProt Q8WUI4); experiment: In vitro HDAC enzyme assay; type: biochemical
[18] = tested on: SNB-19; experiment: NCI-60 antiproliferative screening; type: cell-based; settings: Homo sapiens, SNB-19, read-out: percent inhibition
[19] = tested on: SW-620; experiment: NCI-60 antiproliferative screening; type: cell-based; settings: Homo sapiens, SW-620, read-out: percent inhibition
[20] = tested on: UACC-257; experiment: NCI-60 antiproliferative screening; type: cell-based; settings: Homo sapiens, UACC-257, read-out: percent inhibition
[21] = tested on: DU-145; experiment: NCI-60 antiproliferative screening; type: cell-based; settings: Homo sapiens, DU-145, read-out: percent inhibition
[22] = tested on: U251; experiment: NCI-60 antiproliferative screening; type: cell-based; settings: Homo sapiens, U-251, read-out: percent inhibition
[23] = tested on: HL60; experiment: NCI-60 antiproliferative screening; type: cell-based; settings: Homo sapiens, HL-60, read-out: percent inhibition
[24] = tested on: MDA-MB-468; experiment: NCI-60 antiproliferative screening; type: cell-based; settings: Homo sapiens, MDA-MB-468, read-out: percent inhibition
[25] = tested on: OVCAR-5; experiment: NCI-60 antiproliferative screening; type: cell-based; settings: Homo sapiens, OVCAR-5, read-out: percent inhibition
[26] = tested on: NCI-H226; experiment: NCI-60 antiproliferative screening; type: cell-based; settings: Homo sapiens, NCI-H226, read-out: percent inhibition
[27] = tested on: OVCAR-3; experiment: NCI-60 antiproliferative screening; type: cell-based; settings: Homo sapiens, OVCAR-3, read-out: percent inhibition
[28] = tested on: NCI-H322M; experiment: NCI-60 antiproliferative screening; type: cell-based; settings: Homo sapiens, read-out: percent inhibition
[29] = tested on: MALME-3M; experiment: NCI-60 antiproliferative screening; type: cell-based; settings: Homo sapiens, read-out: percent inhibition
[30] = tested on: SK-OV-3; experiment: NCI-60 antiproliferative screening; type: cell-based; settings: Homo sapiens, SK-OV-3, read-out: percent inhibition
[31] = tested on: HT29; experiment: NCI-60 antiproliferative screening; type: cell-based; settings: Homo sapiens, HT-29, read-out: percent inhibition
[32] = tested on: HCT-15; experiment: NCI-60 antiproliferative screening; type: cell-based; settings: Homo sapiens, HCT-15, read-out: percent inhibition
[33] = tested on: OVCAR-4; experiment: NCI-60 antiproliferative screening; type: cell-based; settings: Homo sapiens, OVCAR-4, read-out: percent inhibition
[34] = tested on: colon cancer cell line HCT-116; experiment: Cell viability assay; type: cell-based; settings: Homo sapiens, HCT-116, 72 h, read-out: Antiproliferative IC50 HCT116
[35] = tested on: SF-268; experiment: NCI-60 antiproliferative screening; type: cell-based; settings: Homo sapiens, SF-268, read-out: percent inhibition
[36] = biological target: HDAC9 (Homo sapiens, UniProt Q9UKV0); experiment: In vitro HDAC enzyme assay; type: biochemical
[37] = biological target: HDAC8 (Homo sapiens, UniProt Q9BY41); experiment: In vitro HDAC enzyme assay; type: biochemical
[38] = tested on: NCI-H522; experiment: NCI-60 antiproliferative screening; type: cell-based; settings: Homo sapiens, NCI-H522, read-out: percent inhibition
[39] = tested on: PC-3; experiment: NCI-60 antiproliferative screening; type: cell-based; settings: Homo sapiens, PC-3, read-out: percent inhibition
[40] = tested on: MDA-MB-435; experiment: NCI-60 antiproliferative screening; type: cell-based; settings: Homo sapiens, MDA-MB-435, read-out: percent inhibition
[41] = tested on: SK-MEL-2; experiment: NCI-60 antiproliferative screening; type: cell-based; settings: Homo sapiens, SK-MEL-2, read-out: percent inhibition
[42] = tested on: CAKI-1; experiment: NCI-60 antiproliferative screening; type: cell-based; settings: Homo sapiens, CAKI-1, read-out: percent inhibition
[43] = tested on: COLO 205; experiment: NCI-60 antiproliferative screening; type: cell-based; settings: Homo sapiens, COLO 205, read-out: percent inhibition

Sequence of HDAC11 (Q96DB2 whole entry): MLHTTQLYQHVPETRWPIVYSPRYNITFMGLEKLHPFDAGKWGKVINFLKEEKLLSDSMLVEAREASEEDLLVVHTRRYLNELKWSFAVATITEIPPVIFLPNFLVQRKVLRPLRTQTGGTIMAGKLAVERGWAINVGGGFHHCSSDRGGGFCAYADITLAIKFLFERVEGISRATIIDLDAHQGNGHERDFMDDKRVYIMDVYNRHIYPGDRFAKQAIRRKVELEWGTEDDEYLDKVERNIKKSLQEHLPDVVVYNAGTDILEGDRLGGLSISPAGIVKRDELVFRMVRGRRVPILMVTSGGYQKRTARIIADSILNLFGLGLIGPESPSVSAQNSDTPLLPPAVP
Sequence of HDAC9 (Q9UKV0 whole entry): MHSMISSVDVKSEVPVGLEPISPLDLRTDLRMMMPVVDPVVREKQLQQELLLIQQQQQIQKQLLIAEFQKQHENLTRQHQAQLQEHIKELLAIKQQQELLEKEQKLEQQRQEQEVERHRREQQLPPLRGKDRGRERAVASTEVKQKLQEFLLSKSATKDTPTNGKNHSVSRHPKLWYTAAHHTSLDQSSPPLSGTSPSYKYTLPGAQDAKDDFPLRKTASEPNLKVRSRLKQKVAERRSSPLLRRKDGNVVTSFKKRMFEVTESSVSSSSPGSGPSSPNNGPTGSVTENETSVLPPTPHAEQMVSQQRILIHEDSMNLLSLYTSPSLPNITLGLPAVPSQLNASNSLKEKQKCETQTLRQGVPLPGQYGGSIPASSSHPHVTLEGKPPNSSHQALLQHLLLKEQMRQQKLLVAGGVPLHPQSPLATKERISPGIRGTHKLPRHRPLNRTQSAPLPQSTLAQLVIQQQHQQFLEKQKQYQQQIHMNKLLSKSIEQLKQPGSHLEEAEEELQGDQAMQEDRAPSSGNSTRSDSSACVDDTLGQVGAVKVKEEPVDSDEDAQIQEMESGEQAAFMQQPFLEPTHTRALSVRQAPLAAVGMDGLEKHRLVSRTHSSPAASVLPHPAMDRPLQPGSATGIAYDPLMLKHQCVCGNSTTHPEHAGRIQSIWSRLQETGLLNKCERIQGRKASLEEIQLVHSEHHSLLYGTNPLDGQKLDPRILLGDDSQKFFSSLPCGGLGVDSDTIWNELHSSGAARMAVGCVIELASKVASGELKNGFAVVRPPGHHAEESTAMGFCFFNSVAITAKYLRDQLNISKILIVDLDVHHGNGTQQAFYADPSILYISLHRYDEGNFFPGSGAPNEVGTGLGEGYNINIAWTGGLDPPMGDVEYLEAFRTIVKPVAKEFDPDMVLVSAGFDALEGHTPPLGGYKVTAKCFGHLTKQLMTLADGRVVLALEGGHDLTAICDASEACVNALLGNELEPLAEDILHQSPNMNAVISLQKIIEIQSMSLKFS
Sequence of HDAC8 (Q9BY41 whole entry): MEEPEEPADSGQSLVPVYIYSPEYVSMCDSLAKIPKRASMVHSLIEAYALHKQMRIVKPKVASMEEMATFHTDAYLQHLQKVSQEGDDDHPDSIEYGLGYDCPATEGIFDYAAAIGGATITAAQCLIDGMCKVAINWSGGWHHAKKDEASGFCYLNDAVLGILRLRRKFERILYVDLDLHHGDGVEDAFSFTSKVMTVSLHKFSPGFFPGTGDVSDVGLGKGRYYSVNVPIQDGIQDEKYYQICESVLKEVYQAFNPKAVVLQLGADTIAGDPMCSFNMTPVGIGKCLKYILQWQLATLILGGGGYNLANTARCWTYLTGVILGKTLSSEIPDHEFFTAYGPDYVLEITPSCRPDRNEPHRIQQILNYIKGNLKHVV
Sequence of HDAC7 (Q8WUI4 whole entry): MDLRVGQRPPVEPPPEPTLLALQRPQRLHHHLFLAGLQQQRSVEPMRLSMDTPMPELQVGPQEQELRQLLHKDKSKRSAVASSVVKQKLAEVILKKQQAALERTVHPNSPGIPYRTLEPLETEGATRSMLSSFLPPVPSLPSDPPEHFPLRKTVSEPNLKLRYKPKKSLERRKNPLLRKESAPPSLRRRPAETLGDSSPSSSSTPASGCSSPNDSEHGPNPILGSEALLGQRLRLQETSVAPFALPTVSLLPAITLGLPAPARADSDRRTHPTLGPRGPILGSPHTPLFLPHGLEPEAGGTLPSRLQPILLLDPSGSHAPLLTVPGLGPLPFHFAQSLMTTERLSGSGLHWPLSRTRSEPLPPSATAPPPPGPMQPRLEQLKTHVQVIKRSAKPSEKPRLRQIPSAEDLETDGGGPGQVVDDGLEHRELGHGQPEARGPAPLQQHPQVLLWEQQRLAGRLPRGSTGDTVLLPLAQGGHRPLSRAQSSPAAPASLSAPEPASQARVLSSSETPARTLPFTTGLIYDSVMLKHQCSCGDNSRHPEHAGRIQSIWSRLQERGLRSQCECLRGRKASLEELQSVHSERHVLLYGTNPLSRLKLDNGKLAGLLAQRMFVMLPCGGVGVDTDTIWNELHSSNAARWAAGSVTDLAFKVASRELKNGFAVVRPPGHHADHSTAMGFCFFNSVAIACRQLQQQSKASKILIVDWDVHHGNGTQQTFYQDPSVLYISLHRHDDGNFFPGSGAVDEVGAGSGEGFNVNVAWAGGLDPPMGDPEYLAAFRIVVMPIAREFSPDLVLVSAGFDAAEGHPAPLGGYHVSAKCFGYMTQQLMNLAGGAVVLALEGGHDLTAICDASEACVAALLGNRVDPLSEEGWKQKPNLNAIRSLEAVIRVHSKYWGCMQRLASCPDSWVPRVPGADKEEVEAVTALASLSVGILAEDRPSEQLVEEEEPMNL
Sequence of HDAC2 (Q92769 whole entry): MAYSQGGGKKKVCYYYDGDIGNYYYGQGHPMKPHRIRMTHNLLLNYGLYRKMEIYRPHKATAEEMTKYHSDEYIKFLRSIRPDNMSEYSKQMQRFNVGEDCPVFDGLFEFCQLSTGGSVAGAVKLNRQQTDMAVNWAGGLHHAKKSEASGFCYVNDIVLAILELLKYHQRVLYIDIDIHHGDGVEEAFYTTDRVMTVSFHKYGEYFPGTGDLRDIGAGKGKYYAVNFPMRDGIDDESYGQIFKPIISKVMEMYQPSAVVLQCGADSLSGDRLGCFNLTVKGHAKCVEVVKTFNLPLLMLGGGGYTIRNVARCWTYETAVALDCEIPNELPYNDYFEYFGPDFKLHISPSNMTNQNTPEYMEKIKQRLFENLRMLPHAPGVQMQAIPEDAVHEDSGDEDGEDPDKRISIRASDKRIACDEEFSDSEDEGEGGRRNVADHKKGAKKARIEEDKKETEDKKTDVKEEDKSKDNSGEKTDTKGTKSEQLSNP

SMILES: COc1ccc(CN2[C@@H](C(=O)NCCCCCCC(=O)NO)Cc3c([nH]c4ccccc34)[C@@H]2C2CC2)cc1 [Compound 13d, (1S,3R)-1-Cyclopropyl-N-(7-(hydroxyamino)-7-oxoheptyl)-2-(4-methoxybenzyl)-2,3,4,9-tetrahydro-1H-pyrido[3,4-b]indole-3-carboxamide]
- inhibition at 10 µM [1]: 84%
- inhibition at 10 µM [2]: 97.9%
- inhibition at 10 µM [3]: 86%
- inhibition at 10 µM [4]: 100%
- inhibition at 10 µM [5]: 100%
- inhibition at 10 µM [6]: 83.2%
- inhibition at 10 µM [7]: 87.5%
- inhibition at 10 µM [8]: 100%
- inhibition at 10 µM [9]: 82.4%
- inhibition at 10 µM [10]: 100%
- inhibition at 10 µM [11]: 92.2%
- IC50 [12]: 0.0235 ± 0.00103 µM
- IC50 [13]: 1.8 ± 0.106 µM
- inhibition of HDAC11 (in words) [13]: weak inhibition
- inhibition at 10 µM [14]: 100%
- inhibition at 10 µM [15]: 100%
- inhibition at 10 µM [16]: 100%
- IC50 [17]: > 50 µM
- activity for HDAC7 (in words) [17]: no activity
- inhibition at 10 µM [18]: 93.3%
- inhibition at 10 µM [19]: 100%
- inhibition at 10 µM [20]: 90.1%
- inhibition at 10 µM [21]: 90.6%
- inhibition at 10 µM [22]: 100%
- inhibition at 10 µM [23]: 96.6%
- inhibition at 10 µM [24]: 95.9%
- inhibition at 10 µM [25]: 100%
- inhibition at 10 µM [26]: 71.9%
- inhibition at 10 µM [27]: 96.8%
- inhibition at 10 µM [28]: 90.5%
- inhibition at 10 µM [29]: 98.5%
- inhibition at 10 µM [30]: 100%
- inhibition at 10 µM [31]: 93.7%
- inhibition at 10 µM [32]: 91.2%
- inhibition at 10 µM [33]: 59.4%
- IC50 [34]: 1.54 ± 0.03 µM
- inhibition at 10 µM [35]: 85.5%
- IC50 [36]: > 50 µM
- activity for HDAC9 (in words) [36]: no activity
- IC50 [37]: > 50 µM
- activity for HDAC8 (in words) [37]: no activity
- inhibition at 10 µM [38]: 100%
- inhibition at 10 µM [39]: 80.9%
- inhibition at 10 µM [40]: 100%
- inhibition at 10 µM [41]: 100%
- inhibition at 10 µM [42]: 96%
- inhibition at 10 µM [43]: 100%
